Results on 3 compounds are retold here after patent US9358229B2, “JAK PI3K/mTOR combination therapy” (Novartis Pharma AG, priority 2011, dated 2016).

Like-named read-outs stand apart in the source and are kept apart here. Some results are limits rather than exact numbers.

For experiment [1], the system named is Ba/F3-EPOR JAK2V617F-mutated cells. Description: Cell proliferation in Ba/F3-EPOR JAK2V617F-mutated cells. The class given is cell-based. The conditions noted are these: Mus musculus, read-out: IC50, cell proliferation. Here is the method: (§1) Mouse (Ba/F3 and Ba/F3-EPOR wild-type or expressing JAK2V617F(VF)) and human (JAK2VF mutated HEL and SET2) cell lines and primary MPN CD34+ cells from patients with myelofibrosis (MF) or polycythemia vera (PV) were used; BCR/ABL mutated K562 cells were used in some experiments. Cell proliferation, colony formation, apoptosis, cell cycle and protein phosphorylation status were evaluated. Effects of drug combination were analyzed according to Chou and Talalay to calculate the combination index (CI); a CI<1.0 indicates synergistic activity.

Experiment [2] has as its system Ba/F3-EPOR JAK2 wild-type (wt) cells. Description: Cell proliferation in Ba/F3-EPOR JAK2 wild-type cells. Conditions: Mus musculus, read-out: IC50, cell proliferation. The class given is cell-based. Here is the method: as §1
Experiment [3] concerns JAK2V617F-mutated HEL cells. Description: Cell proliferation and colony formation in HEL cells. The format is cell-based. The conditions noted are these: Homo sapiens. Here is the method: as §1
Experiment [4] has as its system JAK2V617F-mutated SET2 cells. In words: Cell proliferation and colony formation in SET2 cells. The format is cell-based. Conditions: Homo sapiens, SET-2.
For experiment [5], the system named is BCR/ABL mutated K562 cells. In words: Cell proliferation in K562 cells. The format is cell-based. The conditions noted are these: Homo sapiens. Here is the method: as §1
For experiment [6], the system named is cell lines (Ba/F3, Ba/F3-EPOR, HEL, SET2). In words: Apoptosis (Annexin-V) in cell lines. The format is cell-based. Conditions: at maximum / highest concentrations. The procedure: as §1
Experiment [7] deals with EPO-independent colonies (EEC) of PV patients cells. In words: Erythropoietin-independent colony (EEC) assay. The class given is cell-based, human. The conditions noted are these: for prevention of erythropoietin-independent colony (EEC) formation: primary cells from MPN patients. The procedure: as §1
(§2) Then, the activity of RAD001 and Compound A was analyzed in primary cells from MPN patients.

The next experiment relates to CD34+ cells of MF pts. Description: Proliferation of CD34+ cells of MF patients. Conditions: Homo sapiens. The format is cell-based. Here is the method:
as §1, §2

Experiment [8] concerns CD34+ cells of healthy donors. Description: Proliferation of CD34+ cells of healthy donors. The class given is cell-based. The conditions noted are these: Homo sapiens.
For experiment [9], the system named is JAK2V617F mutated patients cells. In words: Single-colony genotyping in JAK2V617F mutated patients cells. The format is cell-based, human. Conditions: n=7. The procedure:
as §2

Experiment [10] relates to BaF3 JAK2V617F-luc+ cells. Description: SCID BaF3 JAK2V617F-luciferase mouse model. The class given is in vivo. The conditions noted are these: daily per os, 60 mpk Compound B, 45 mpk Compound A. The procedure: To ascertain the effects of drugs targeting PI3K/Akt/mTOR pathway alone and in combination with JAK2 inhibitor in a murine model of myeloproliferative neoplasms, a SCID BaF3 JAK2^V617F-luciferase mouse model was used. […] Female SCID mice (4-6 weeks of age; Harlan) were fed rodent standard chow and provided with water ad libitum. Mice were given 3×10^6 JAK2^V617F-luc+ cells by tail vein injection. Mice were injected with D-luciferin before imaging to detect a bioluminescence signal that is proportional to the clone burden. Baseline imaging was performed using a Photon Imager (Biospace Lab) apparatus to establish bioluminescence on day 6 after cell injection. […] Drugs treatment was administered daily per os (by mouth). Imaging was performed on day 7, 14, 21, and 28 after the first drug dose. Mice were followed daily for survival and humanely sacrificed when they developed hind limb paralysis or became moribund and considered deceased at the time at which they were sacrificed.

Experiment [11] has as its system JAK2 V617F Knock-in (KI) mouse. Description: C57B16/J JAK2 V617F Knock-in (KI) mouse model. Conditions: KI mice treated for 5 days. The class given is in vivo.
Description: Mice were treated for 5 days, then blood, spleen and bone marrow cells were obtained for further analysis.

Regarding `Cn1c(=O)n(-c2ccc(C(C)(C)C#N)cc2)c2c3cc(-c4cnc5ccccc5c4)ccc3ncc21` [Compound A, 2-methyl-2-[4-(3-methyl-2-oxo-8-quinolin-3-yl-2,3-dihydro-imidazo[4,5-c]quinolin-1-yl)-phenyl]-propionitrile], the IC50 in experiment [1] came out at 87 ± 50 nM; in experiment [2] it was 676 ± 200 nM; in [3], 387 ± 90 nM; in [4] it was 334 ± 40 nM; in [5], 5000 nM; in [7] (Homo sapiens, PV patients cells, read-out: IC50, growth of EPO-independent colonies (EEC)), 20 ± 10 nM. The values for the IC50 (in the experiment with CD34+ cells of MF pts; in experiment [8]) were 43 ± 20 nM and 780 ± 150 nM, respectively. In experiment [6], the “apoptosis / Annexin-V +ve cells” value is 30-40%. Moreover, in [7], the “prevention of erythropoietin-independent colony (EEC) formation” value is listed as “low nM range”. Besides, the “reduction of VF in favor of wild-type colonies” value in experiment [9] (mean) came out at 40±16%. For the same compound, the “reduction of VF in favor of wild-type colonies, range” value in experiment [9] (range) is on record as 18-71%. Besides, the “MEAN LIFESPAN” value in [10] was 24 days. Further, the “LIFESPAN INCREASE (%) VS VEHICLE” value in experiment [10] amounted to 42%. Moreover, the “median spleen index (ratio of spleen weight to body weight×100)” value in experiment [11] is 35. For the same compound, the reticulocyte count median in experiment [11] is given as 50 No. per HPF.

On to `N#CC[C@H](C1CCCC1)n1cc(-c2ncnc3[nH]ccc23)cn1` [Compound B, (3R)-3-cyclopentyl-3-[4-(7H-pyrrolo[2,3-d]pyrimidin-4-yl)-1H-pyrazol-1-yl]propanenitrile], for which, in experiment [10], the “MEAN LIFESPAN” value worked out at 19 days and the “LIFESPAN INCREASE (%) VS VEHICLE” value was 19%. The same compound came in with a reticulocyte count median in experiment [11] of 44 No. per HPF.

With `CO[C@H]1C[C@@H]2CC[C@@H](C)[C@@](O)(O2)C(=O)C(=O)N2CCCC[C@H]2C(=O)O[C@H]([C@H](C)C[C@@H]2CC[C@@H](OCCO)[C@H](OC)C2)CC(=O)[C@H](C)/C=C(\C)[C@@H](O)[C@@H](OC)C(=O)[C@H](C)C[C@H](C)/C=C/C=C/C=C/1C` [RAD001, reference compound], the IC50 in experiment [1] (Ba/F3-EPOR JAK2V617F-mutated cells) is 615 ± 50 nM; in experiment [2] (Ba/F3-EPOR JAK2 wild-type cells) it was > 10000 nM. Further, the “prevention of erythropoietin-independent colony (EEC) formation” value in experiment [7] is “low nM range”.
